Source: US11814367B2, “Inhibitors of glycogen synthase 1 (GYS1) and methods of use thereof” (Maze Therapeutics, Inc., priority 2021, dated 2023)

Legend:
[1] = test system: hGYS1 enzyme / glycogen synthesis in HeLa cells; assay: GYS1 cell based assay (glycogen synthesis, Glucose-glo); design: species or system human; settings: 24 h incubation, 20 mM glucose, geometric mean of at least 2 runs
From the text: The GYS1 cell based assay is a bioluminescent assay that quantifies the glucose resulting from glycogen digestion; the quantified glucose is an indirect measure of GYS1 glycogen synthesis. Newly synthesized glycogen is digested using Glucoamylase; the resulting glucose is quantified by using the Glucose-glo assay kit from Promega. Glucose-glo works by coupling glucose oxidation and NADH production with a bioluminescent system that is activated with NADH. Glucose is oxidized by Glucose dehydrogenase and the reaction reduces NAD+ to NADH; NADH activates Reductase which reduces a pro-luciferin Reductase Substrate to luciferin. Luciferin is detected in a luciferase reaction using Ultra-Glo rLuciferase and ATP, and the luminesce produced is proportional to the glucose in the sample. The luminescence is measured as a single point read in a plate reader.
Compounds that inhibit the hGYS1 enzyme and, subsequently, the glycogen synthesis in cells, were tested using assay ready plates (white, clear bottom 384 well plates) in a final DMSO reaction volume of 1% DMSO. Compounds in the assay ready plates were mixed with media with no additives, except for 20 mM glucose prior to cell addition. HeLa cells were starved in media with no additives, except for 1× Glutamax for 24 h. Starved HeLa cells were plated, in a 1:1 ratio to the media in the assay ready plate and incubated for 24 h at 37° C. and 5% C02. Cells were washed in 1×PBS buffer and lysed in lysis buffer containing 50% 1×PBS and 25% 0.3 N HCl of the final volume in the well or reaction volume; cells were incubated with lysis buffer for 10 minutes and quenched with the remaining 25% of the reaction volume that consisted of 450 mM Tris pH 8.0. Lysates were mixed in a 1:1 ratio with Glucoamylase in 100 mM Sodium Acetate buffer, pH 5.3; the mixture was incubated for 1 h at 37° C. The digested lysate was mixed in a 1:1 ratio with Glucose-glo detection mixture as per vendor recommendations (Luciferase detection buffer, Reductase, Reductase substrate, Glucose dehydrogenase, and NAD) in read-out plates (solid white 384-well plates) and incubated for 1 h at RT. The plates were read using a plate reader with luminescence capabilities. Each compound concentration Relative Luminescence Unit (RLU) was averaged and normalized to the average RLU of the positive and negative controls to obtain a percentage inhibition. The normalized data vs. concentration was plotted; to determine the half-maximal concentration (IC50), the Levenberg-Marquardt algorithm was used to fit a Hill equation to the dose response data.
The results are shown in Table 3 below, which reports the IC50 of each compound. Unless otherwise specified, IC50 values are reported as the geometric mean of at least 2 assay runs on separate days. As shown in the table below, the compounds of the present invention are potent inhibitors of human GYS1. Unless otherwise specified, IC50 values are reported as the geometric mean of at least two assay runs on separate days. Each run represents the average of a technical replicate, where each compound was assayed twice in the same plate. A superscript “#” symbol in Table 3 indicates results from a single assay run.

[2] = target: hGYS1 enzyme (recombinant hGYS1/GN1 protein) (Homo sapiens (Human), UniProt P13807); assay: GYS1 coupled enzyme assay (PK/LDH); format: biochemical; settings: hGYS1/GN1 50 nM, UDP-Glucose 0.8 mM, G6P 1 mM; geometric mean of at least 2 runs
[3] = target: hGYS2 enzyme (recombinant hGYS2/GN1 protein) (Homo sapiens (Human), UniProt P54840); assay: GYS2 coupled enzyme assay (PK/LDH); format: biochemical; settings: geometric mean of at least 2 assay runs on separate days, read-out: Avg_IC50
Summary of the method: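 IC50 came from Hill fits of duplicate percent inhibition, based on control-normalized slopes of 340 nm NADH decline read each minute for 10 min. The reaction held recombinant hGYS2/GN1 (200 nM) with glycogen, UDP-glucose, G6P and PEP, plus PK/LDH coupling at pH 7.5 and 2.5% DMSO.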

Sequence of hGYS2 enzyme (recombinant hGYS2/GN1 protein) (P54840 whole entry): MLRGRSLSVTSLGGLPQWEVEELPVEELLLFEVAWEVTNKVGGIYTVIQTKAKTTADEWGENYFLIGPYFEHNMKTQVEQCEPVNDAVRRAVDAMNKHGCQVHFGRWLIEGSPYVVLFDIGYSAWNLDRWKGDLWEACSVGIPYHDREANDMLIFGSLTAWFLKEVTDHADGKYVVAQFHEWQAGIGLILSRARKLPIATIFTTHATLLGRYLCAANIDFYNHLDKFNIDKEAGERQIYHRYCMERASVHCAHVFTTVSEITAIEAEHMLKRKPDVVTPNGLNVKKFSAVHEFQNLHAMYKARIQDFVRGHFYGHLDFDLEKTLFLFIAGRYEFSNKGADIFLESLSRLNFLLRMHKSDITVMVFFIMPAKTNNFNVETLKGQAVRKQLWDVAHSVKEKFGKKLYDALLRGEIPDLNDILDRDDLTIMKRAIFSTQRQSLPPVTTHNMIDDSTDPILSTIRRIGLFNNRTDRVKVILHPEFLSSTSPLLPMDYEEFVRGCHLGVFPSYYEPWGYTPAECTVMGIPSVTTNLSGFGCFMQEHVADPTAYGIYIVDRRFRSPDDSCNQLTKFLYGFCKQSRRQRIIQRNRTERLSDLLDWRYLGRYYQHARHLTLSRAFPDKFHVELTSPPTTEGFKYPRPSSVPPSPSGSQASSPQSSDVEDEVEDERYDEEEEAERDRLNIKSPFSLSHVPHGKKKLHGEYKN
Sequence of hGYS2 enzyme (recombinant hGYS2/GN1 protein) (P46976 whole entry partner): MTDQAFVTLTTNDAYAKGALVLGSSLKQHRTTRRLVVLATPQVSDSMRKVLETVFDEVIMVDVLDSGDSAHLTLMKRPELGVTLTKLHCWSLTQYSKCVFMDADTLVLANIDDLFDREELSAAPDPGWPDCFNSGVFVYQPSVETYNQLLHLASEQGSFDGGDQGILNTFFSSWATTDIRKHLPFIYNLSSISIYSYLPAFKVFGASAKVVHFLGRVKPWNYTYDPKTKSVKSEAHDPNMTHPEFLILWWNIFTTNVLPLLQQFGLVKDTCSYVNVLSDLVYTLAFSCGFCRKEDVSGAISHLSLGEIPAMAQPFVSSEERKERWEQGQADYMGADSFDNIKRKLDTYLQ
Sequence of hGYS1 enzyme (recombinant hGYS1/GN1 protein) (P13807 whole entry): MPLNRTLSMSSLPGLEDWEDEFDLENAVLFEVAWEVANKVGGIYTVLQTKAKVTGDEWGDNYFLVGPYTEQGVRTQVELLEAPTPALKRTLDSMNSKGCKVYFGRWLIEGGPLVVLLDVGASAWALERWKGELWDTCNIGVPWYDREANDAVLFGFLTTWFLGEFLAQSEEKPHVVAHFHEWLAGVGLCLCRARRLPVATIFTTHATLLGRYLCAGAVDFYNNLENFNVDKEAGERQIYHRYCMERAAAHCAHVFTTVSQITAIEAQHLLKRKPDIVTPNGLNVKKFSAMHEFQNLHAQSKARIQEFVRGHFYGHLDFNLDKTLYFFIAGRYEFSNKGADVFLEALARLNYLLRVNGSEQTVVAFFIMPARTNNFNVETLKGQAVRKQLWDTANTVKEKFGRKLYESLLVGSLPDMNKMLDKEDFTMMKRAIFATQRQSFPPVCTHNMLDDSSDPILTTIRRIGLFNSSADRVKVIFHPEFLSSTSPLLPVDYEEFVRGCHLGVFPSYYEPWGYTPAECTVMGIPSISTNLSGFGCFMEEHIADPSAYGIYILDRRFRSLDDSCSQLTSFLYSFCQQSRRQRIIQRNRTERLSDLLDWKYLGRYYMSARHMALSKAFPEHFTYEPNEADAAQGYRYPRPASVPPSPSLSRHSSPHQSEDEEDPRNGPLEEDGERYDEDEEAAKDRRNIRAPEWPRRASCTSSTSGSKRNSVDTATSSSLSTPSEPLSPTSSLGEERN
Sequence of hGYS1 enzyme (recombinant hGYS1/GN1 protein) (P46976 whole entry partner): as the sequence (P46976 whole entry partner) above

Molecule	IC50 ([1]; Homo sapiens, HeLa, 24 h) [nM]	IC50 [2] [nM]	IC50 [1] [nM]	IC50 [3] [nM]
O=C(NC(c1ccccc1)c1ccc(C2CC2)cn1)[C@@H]1C[C@@H](F)CN1C(=O)Cc1cnn[nH]1 (single isomer, unassigned) [Compound 498, (2S,4R)-1-(2-(1H-1,2,3-triazol-5-yl)acetyl)-N—((R) or (S)-(5-cyclopropylpyridin-2-yl)(phenyl)methyl)-4-fluoropyrrolidine-2-carboxamide]	–	> 10000	> 10000	–
CC(C)c1cnc(C(NC(=O)[C@@H]2C[C@@H](F)CN2C(=O)Cc2cnn[nH]2)c2ccccc2)cc1C(F)(F)F (single isomer, unassigned) [Compound 608, (2S,4R)-4-fluoro-N-[(S) or (R)-phenyl[5-(propan-2-yl)-4-(trifluoromethyl)pyridin-2-yl]methyl]-1-[2-(1H-1,2,3-triazol-5-yl)acetyl]pyrrolidine-2-carboxamide]	> 10000	2860	–	–
O=C(NC(c1ccccc1)c1ccc(C2CCC2)cn1)[C@@H]1C[C@@H](F)CN1C(=O)Cc1cnn[nH]1 (single isomer, unassigned) [Compound 610, (2S,4R)-N-[(S) or (R)-(5-cyclobutylpyridin-2-yl)(phenyl)methyl]-4-fluoro-1-[2-(1H-1,2,3-triazol-5-yl)acetyl]pyrrolidine-2-carboxamide]	1010	107	–	–
O=C(N[C@@H](c1ccccc1)c1ccc(C2CC2)c(F)n1)[C@@H]1C[C@@H](F)CN1C(=O)CNC(=O)N1CCC1 [Compound 305, (2S,4R)-1-{2-[(azetidine-1-carbonyl)amino]acetyl}-N-[(S)-(5-cyclopropyl-6-fluoropyridin-2-yl)(phenyl)methyl]-4-fluoropyrrolidine-2-carboxamide]	630	–	–	–
O=C(N[C@@H](c1ccccc1)c1ccc(C2CC2)c(Cl)c1)[C@@H]1C[C@@H](F)CN1C(=O)Cc1cnn[nH]1 [Compound 664, (2S,4R)-N-[(S)-(3-chloro-4-cyclopropylphenyl) (phenyl)methyl]-4-fluoro-1-[2-(1H-1,2,3-triazol-5-yl)acetyl]pyrrolidine-2-carboxamide]	–	115	–	> 100000
Cc1cc([C@@H](NC(=O)[C@@H]2C[C@@H](F)CN2C(=O)Cc2cnn[nH]2)c2ccccc2)ccc1C1CC1 [Compound 665, (2S,4R)-N-[(S)-(4-cyclopropyl-3-methylphenyl) (phenyl)methyl]-4-fluoro-1-[2-(1H-1,2,3-triazol-5-yl)acetyl]pyrrolidine-2-carboxamide]	–	99	–	> 100000
O=C(N[C@H](c1ccccc1)c1ccc(C2CC2)c(F)n1)[C@@H]1C[C@@H](F)CN1C(=O)Cn1cnc2ccccc21 [Compound 716, (2S,4R)-1-[2-(1H-1,3-benzodiazol-1-yl)acetyl]-N-[(R)-(5-cyclopropyl-6-fluoropyridin-2-yl)(phenyl)methyl]-4-fluoropyrrolidine-2-carboxamide]	22300	–	–	–
(2S,4R)-N-[(S)-(4- cyclopropyl-3- fluorophenyl)(phenyl) methyl]-4-fluoro-1- [2-(1H-1,2,3-triazol-5- yl)acetyl]pyrrolidine- 2-carboxamide [Compound 439]	–	185	–	> 100000

More lines, now with the values ahead:

IC50 ([1]; Homo sapiens, HeLa, 24 h) [nM]	IC50 [2] [nM]	IC50 [1] [nM]	IC50 [3] [nM]	Molecule
> 9010	1150	–	–	CC(C)c1ccc([C@H](NC(=O)[C@@H]2C[C@@H](F)CN2C(=O)Cc2cnn[nH]2)c2ccccc2)nc1F (relative stereo) [Compound 776, (2S,4R)-4-fluoro-N-[(R*)-[6-fluoro-5-(propan-2-yl)pyridin-2-yl](phenyl)methyl]-1-[2-(1H-1,2,3-triazol-5-yl)acetyl] pyrrolidine-2-carboxamide]
3290	–	–	–	COc1cccc(C(NC(=O)[C@@H]2C[C@@H](F)CN2C(C)=O)c2ccc(C(C)C)c(F)n2)c1 (single isomer, unassigned) [Compound 654, (2S,4R)-1-acetyl-4-fluoro-N-[(S) or (R)-[6-fluoro-5-(propan-2-yl)pyridin-2-yl](3-methoxyphenyl)methyl]pyrrolidine-2-carboxamide]
9200	–	–	–	CC(=O)N1C[C@H](F)C[C@H]1C(=O)NC(c1cccc(-c2cc(C)nn2C)c1)c1ccc(C(C)C)c(F)n1 (single isomer, unassigned) [Compound 697, (2S,4R)-1-acetyl-N-[(S) or (R)-[3-(1,3-dimethyl-1H-pyrazol-5-yl)phenyl][6-fluoro-5-(propan-2-yl)pyridin-2-yl]methyl]-4-fluoropyrrolidine-2-carboxamide]
1230	–	–	–	NC(=O)NCC(=O)N1C[C@H](F)C[C@H]1C(=O)N[C@@H](c1ccccc1)c1ccc(C2CC2)c(F)n1 [Compound 302, (2S,4R)-1-[2-(carbamoylamino)acetyl]-N-[(S)-(5-cyclopropyl-6-fluoropyridin-2-yl)(phenyl)methyl]-4-fluoropyrrolidine-2-carboxamide]
210	–	–	–	CC(C)c1ccc([C@@H](NC(=O)[C@@H]2C[C@@H](F)CN2C(=O)CNC(=O)N(C)C)c2ccccc2)cc1F [Compound 361, (2S,4R)-1-{2-[(dimethylcarbamoyl)amino]acetyl}-4-fluoro-N-[(S)-[3-fluoro-4-(propan-2-yl)phenyl](phenyl)methyl] pyrrolidine-2-carboxamide]
–	849	–	> 100000	CC(C)c1ccc([C@H](NC(=O)[C@@H]2C[C@@H](F)CN2C(=O)Cc2cnn[nH]2)c2ccccc2)cc1Cl [Compound 671, (2S,4R)-N-[(R)-[3-chloro-4-(propan-2-yl)phenyl](phenyl)methyl]-4-fluoro-1-[2-(1H-1,2,3-triazol-5-yl)acetyl]pyrrolidine-2-carboxamide]
–	47	–	> 100000	CC(=O)N[C@@H](CC(N)=O)C(=O)N1C[C@H](F)C[C@H]1C(=O)N[C@@H](c1ccccc1)c1ccc(C(C)C)c(F)c1 [Compound 765, (2S,4R)-1-[(2S)-3-carbamoyl-2-acetamidopropanoyl]-4-fluoro-N-[(S)-[3-fluoro-4-(propan-2-yl)phenyl](phenyl)methyl] pyrrolidine-2-carboxamide]
130	–	–	–	CC(C)c1ccc([C@@H](NC(=O)[C@@H]2C[C@@H](F)CN2C(=O)Cn2cc(N3CCC3)nn2)c2ccccc2)nc1F [Compound 787, (2S,4R)-1-{2-[4-(azetidin-1-yl)-1H-1,2,3-triazol-1-yl]acetyl}-4-fluoro-N-[(S)-[6-fluoro-5-(propan-2-yl)pyridin-2-yl](phenyl)methyl] pyrrolidine-2-carboxamide]
180	–	–	–	COc1nc(CC(=O)N2C[C@H](F)C[C@H]2C(=O)N[C@@H](c2ccccc2)c2ccc(C(C)C)c(F)n2)nn1C [Compound 800, (2S,4R)-4-fluoro-N-[(S)-[6-fluoro-5-(propan-2-yl)pyridin-2-yl](phenyl)methyl]-1-[2-(5-methoxy-1-methyl-1H-1,2,4-triazol-3-yl)acetyl] pyrrolidine-2-carboxamide]
380	–	–	–	CC(C)c1ccc([C@@H](NC(=O)[C@@H]2C[C@@H](F)CN2C(=O)Cc2nc(C(F)(F)F)co2)c2ccccc2)nc1F [Compound 801, (2S,4R)-4-fluoro-N-[(S)-[6-fluoro-5-(propan-2-yl)pyridin-2-yl](phenyl)methyl]-1-{2-[4-(trifluoromethyl)-1,3-oxazol-2-yl]acetyl} pyrrolidine-2-carboxamide]
